Assay results from the CheMixHub viscosity set.
Several values for one entry are separate records, joined by “and”; a condition that tells them apart may be missing. Equal values may be shown once.

Assay: xn = mol fraction of the nth substance listed

C1COCO1 + CO
303.15 K, 101 kPa
Conditions	viscosity [mPa·s]
x1 = 0.04585	0.5056
x1 = 0.09758	0.5088
x1 = 0.1564	0.516
x1 = 0.2238	0.5272
x1 = 0.3019	0.5382
x1 = 0.3935	0.5516
x1 = 0.5023	0.5642
x1 = 0.6337	0.5454
x1 = 0.7956	0.5446

CN(C)P(=O)(N(C)C)N(C)C + CO
303.15 K, 101.3 kPa
Conditions	viscosity [mPa·s]
x1 = 0.0993	0.829
x1 = 0.2036	1.145
x1 = 0.2984	1.401
x1 = 0.3941	1.63
x1 = 0.4882	1.846
x1 = 0.5898	2.07
x1 = 0.6978	2.308
x1 = 0.778	2.476
x1 = 0.8966	2.722

CC(=O)c1ccccc1 + COC(=O)c1ccccc1
viscosity [mPa·s], 101 kPa
Conditions	x2 = 0.0946	x2 = 0.1898	x2 = 0.2861	x2 = 0.386	x2 = 0.4823	x2 = 0.5819	x2 = 0.6825	x2 = 0.7877	x2 = 0.8917
303.15 K	1.527	1.558	1.588	1.611	1.608	1.606	1.6	1.593	1.614
313.15 K	1.285	1.307	1.329	1.348	1.341	1.334	1.322	1.315	1.329

CCC(C)C(C)C (centres undefined) + COC(C)(C)C
298.15 K, 101.33 kPa
Conditions	viscosity [mPa·s]
x2 = 0.0983	0.3824
x2 = 0.1999	0.3758
x2 = 0.2986	0.3693
x2 = 0.3972	0.363
x2 = 0.4975	0.3572
x2 = 0.5979	0.3519
x2 = 0.7006	0.3469
x2 = 0.797	0.3423
x2 = 0.8949	0.3387

C1COCO1 + COCCO
298.15 K, 101 kPa
Conditions	viscosity [mPa·s]
x1 = 0.1024	1.345
x1 = 0.2043	1.171
x1 = 0.3057	1.032
x1 = 0.4065	0.9197
x1 = 0.5067	0.8293
x1 = 0.6064	0.7564
x1 = 0.7056	0.6979
x1 = 0.8043	0.6517
x1 = 0.9024	0.6155

CCC(O)CC + COc1ccccc1
viscosity [mPa·s], 101.33 kPa
Conditions	x2 = 0.1007	x2 = 0.2006	x2 = 0.3001	x2 = 0.3996	x2 = 0.5	x2 = 0.5999	x2 = 0.6973	x2 = 0.7998	x2 = 0.8971
303.15 K	2.787	2.043	1.547	1.238	1.062	0.976	0.941	0.927	0.917
313.15 K	1.745	1.355	1.093	0.938	0.863	0.835	0.824	0.811	0.793
323.15 K	1.261	1.041	0.888	0.795	0.747	0.729	0.719	0.709	0.697

O=S(Cl)Cl + Cc1cc(C)cc(C)c1
298.15 K, 101 kPa
Conditions	viscosity [mPa·s]
x1 = 0.234	0.685
x1 = 0.314	0.6908
x1 = 0.432	0.6952
x1 = 0.571	0.6939
x1 = 0.743	0.677
x1 = 0.9	0.6495

CCCCCCCC/C=C\CCCCCCCC(=O)OCC(COC(=O)CCCCCCC/C=C\CCCCCCCC)OC(=O)CCCCCCC/C=C\CCCCCCCC + Cc1ccc(C)cc1
viscosity [mPa·s], 101.33 kPa
Conditions	293.15 K	298.15 K	303.15 K	308.15 K	313.15 K
x1 = 0.000755	0.6573	0.6175	0.5813	0.5465	0.5168
x1 = 0.001496	0.6699	0.6292	0.5923	0.5567	0.5261
x1 = 0.004118	0.7209	0.6762	0.6359	0.5968	0.5636
x1 = 0.007318	0.7825	0.7329	0.6883	0.6454	0.609
x1 = 0.01139	0.8597	0.8042	0.7541	0.706	0.665
x1 = 0.01526	0.9594	0.8955	0.8379	0.7833	0.7368
x1 = 0.02469	1.185	1.101	1.027	0.9558	0.8959
x1 = 0.02908	1.291	1.197	1.115	1.037	0.9704
x1 = 0.03513	1.421	1.316	1.222	1.134	1.06
x1 = 0.04678	1.777	1.637	1.513	1.399	1.302
x1 = 0.06075	2.241	2.061	1.885	1.733	1.605

CC(=O)c1ccccc1 + Cc1ccccc1
viscosity, 101 kPa
Conditions	x2 = 0.1093	x2 = 0.2145	x2 = 0.3206	x2 = 0.4281	x2 = 0.5229	x2 = 0.6213	x2 = 0.7157	x2 = 0.8392	x2 = 0.9074
298.15 K	1.561 mPa·s and 1.561 mPa·s	1.446 mPa·s and 1.446 mPa·s	1.329 mPa·s and 1.329 mPa·s	1.211 mPa·s and 1.211 mPa·s	1.105 mPa·s and 1.105 mPa·s	0.9949 mPa·s and 0.9949 mPa·s	0.8879 mPa·s and 0.8879 mPa·s	0.7472 mPa·s and 0.7472 mPa·s	0.6694 mPa·s and 0.6694 mPa·s
303.15 K	1.426 mPa·s and 1.426 mPa·s	1.323 mPa·s and 1.323 mPa·s	1.218 mPa·s and 1.218 mPa·s	1.112 mPa·s and 1.112 mPa·s	1.018 mPa·s and 1.018 mPa·s	0.9188 mPa·s and 0.9188 mPa·s	0.8233 mPa·s and 0.8233 mPa·s	0.6978 mPa·s and 0.6978 mPa·s	0.6286 mPa·s and 0.6286 mPa·s
308.15 K	1.31 mPa·s and 1.31 mPa·s	1.217 mPa·s and 1.217 mPa·s	1.123 mPa·s and 1.123 mPa·s	1.027 mPa·s and 1.027 mPa·s	0.9425 mPa·s and 0.9425 mPa·s	0.8535 mPa·s and 0.8535 mPa·s	0.7678 mPa·s and 0.7678 mPa·s	0.6554 mPa·s and 0.6554 mPa·s	0.5933 mPa·s and 0.5933 mPa·s

CCC(O)CC + Cc1ccccc1
viscosity [mPa·s], 101 kPa
Conditions	x1 = 0.1	x1 = 0.1999	x1 = 0.2999	x1 = 0.4	x1 = 0.4999	x1 = 0.6	x1 = 0.6999	x1 = 0.8	x1 = 0.9001
303.15 K	0.5369	0.57	0.6172	0.6865	0.7794	0.9264	1.142	1.52	2.12
308.15 K	0.5072	0.5352	0.5765	0.6364	0.7145	0.8369	1.015	1.313	1.767
313.15 K	0.4793	0.5027	0.5395	0.5918	0.658	0.7604	0.9062	1.147	1.493
318.15 K	0.4555	0.4739	0.5062	0.5515	0.6092	0.6951	0.8461	1.013	1.285
323.15 K	0.433	0.4499	0.4765	0.5154	0.5649	0.6384	0.7404	0.9004	1.112

CCCCCCCC/C=C\CCCCCCCC(=O)OCC(COC(=O)CCCCCCC/C=C\CCCCCCCC)OC(=O)CCCCCCC/C=C\CCCCCCCC + Cc1ccccc1
viscosity [mPa·s], 101.33 kPa
Conditions	x1 = 0.000651	x1 = 0.001141	x1 = 0.003237	x1 = 0.006694	x1 = 0.009965	x1 = 0.015	x1 = 0.01736	x1 = 0.02174	x1 = 0.03032	x1 = 0.04061
293.15 K	0.6007	0.6111	0.6517	0.7201	0.7951	0.9362	0.971	1.073	1.306	1.616
298.15 K	0.5652	0.5749	0.6124	0.6756	0.7447	0.8679	0.9064	0.9993	1.212	1.493
303.15 K	0.5329	0.5419	0.5768	0.6355	0.6992	0.8126	0.8482	0.9337	1.129	1.385
308.15 K	0.5016	0.5101	0.5425	0.5965	0.6557	0.7602	0.793	0.871	1.051	1.284
313.15 K	0.4748	0.4827	0.513	0.5635	0.6185	0.7155	0.7459	0.8182	0.9851	1.198

O=S(Cl)Cl + Cc1ccccc1
298.15 K, 101 kPa
Conditions	viscosity [mPa·s]
x1 = 0.261	0.5832
x1 = 0.426	0.6019
x1 = 0.559	0.6139
x1 = 0.72	0.6223
x1 = 0.802	0.625
x1 = 0.923	0.6236

CC(=O)c1ccccc1 + ClC(Cl)Cl
298.15 K, 101 kPa
Conditions	viscosity [mPa·s]
x1 = 0.0992	0.655
x1 = 0.337	0.915
x1 = 0.501	1.107
x1 = 0.7125	1.352
x1 = 0.8875	1.53

CCCCCCCC/C=C\CCCCCCCC(=O)OCC(COC(=O)CCCCCCC/C=C\CCCCCCCC)OC(=O)CCCCCCC/C=C\CCCCCCCC + ClC(Cl)Cl
viscosity [mPa·s], 101.33 kPa
Conditions	x1 = 0.000728	x1 = 0.000907	x1 = 0.00244	x1 = 0.004913	x1 = 0.007824	x1 = 0.01322	x1 = 0.01672	x1 = 0.03078
293.15 K	0.5839	0.5875	0.6352	0.695	0.8133	1.032	1.109	1.733
298.15 K	0.5545	0.5581	0.603	0.6576	0.7684	0.9701	1.042	1.585
303.15 K	0.5275	0.5306	0.5725	0.6237	0.727	0.9137	0.9804	1.474

CC(=O)c1ccccc1 + ClCCCl
298.15 K, 101 kPa
Conditions	viscosity [mPa·s]
x2 = 0.1118	1.531
x2 = 0.3581	1.283
x2 = 0.6942	0.993

FCC(F)(F)F + FC(F)C(F)(F)F
viscosity [mPa·s], 101 kPa
Conditions	x1 = 0.25	x1 = 0.5	x1 = 0.746
298.15 K	0.158	0.1739	0.1862
313.15 K	0.1263	0.1395	0.151

FCC(F)(F)F + FCF
viscosity [mPa·s], 101 kPa
Conditions	x1 = 0.245	x1 = 0.518	x1 = 0.756
298.15 K	0.1241	0.1379	0.1592
313.15 K	0.1031	0.1152	0.129

CC(C)C[C@H](NC(=O)CN)C(=O)O + O
viscosity [mPa·s], 100 kPa
Conditions	x1 = 0.000362	x1 = 0.000727	x1 = 0.00109	x1 = 0.00145	x1 = 0.00179	x1 = 0.002245	x1 = 0.002699
293.15 K	1.015	1.029	1.042	1.054	1.067	1.083	1.1
298.15 K	0.9019	0.9133	0.9246	0.9358	0.9464	0.9607	0.9749
303.15 K	0.8072	0.817	0.8268	0.8363	0.8455	0.8577	0.8698
308.15 K	0.7277	0.7362	0.7447	0.753	0.761	0.7717	0.7823
313.15 K	0.6605	0.668	0.6755	0.6828	0.6898	0.6992	0.7085

C[N+](C)(C)CCO.O=C([O-])CCCC[C@@H]1SC[C@@H]2NC(=O)N[C@@H]21 + O
viscosity [mPa·s], 100 kPa
Conditions	x1 = 0.0009415	x1 = 0.001329	x1 = 0.001899	x1 = 0.002797	x1 = 0.003833	x1 = 0.005474
293.15 K	1.044	1.058	1.079	1.111	1.146	1.2
298.15 K	0.927	0.939	0.957	0.984	1.014	1.06
303.15 K	0.829	0.84	0.855	0.879	0.905	0.944
308.15 K	0.747	0.756	0.77	0.79	0.812	0.846
313.15 K	0.678	0.686	0.698	0.716	0.735	0.765

NC(=O)c1ccccc1O + O
viscosity [mPa·s], 100 kPa
Conditions	x1 = 7.39e-05	x1 = 0.000108	x1 = 0.000143	x1 = 0.00018	x1 = 0.0002156	x1 = 0.0002516
293.15 K	1.008	1.011	1.013	1.015	1.016	1.017
298.15 K	0.896	0.899	0.901	0.902	0.903	0.904
303.15 K	0.803	0.805	0.807	0.808	0.81	0.811
308.15 K	0.725	0.727	0.728	0.73	0.731	0.732
313.15 K	0.659	0.661	0.662	0.663	0.664	0.665
